Data taken from patent US4791135A (priority 1987, dated 1988).

Experiments:
[1] = Water solubility; format: physicochemical
[2] = test system: Plasmodium falciparum D-6 (Sierra Leone clone) and W-2 (Indochina clone); assay: In vitro antimalarial activity against both clones, summarised in words; format: cell-based; conditions: in words; relative to artemisinin (3) or compounds 2 and 3
Experimental: (§1) The former clone is a strain that is resistant to mefloquine and the latter, to chloroquine, pyrimethamine, sulfadoxine, and quinine.
(§2) In vitro assays were conducted using a modification of the semiautomated microdilution technique of Desjardins et al., Antimicrob. Agents Chemoether., 1979, Volume 16, page 710 and Milhous et al., Antimicrob. Agents Chemother., 1985, Volume 27, page 525. Two P. falciparum malaria parasite clones, designated as Indochina (W-2) and Sierra Leone (D-6), were utilized in susceptibility testing. They were derived by direct visualization and micromanipulation from patient isolates obtained by the Centers for Disease Control, Atlanta, GA in 1980 and 1982, respectively. The patients had acquired infections either in Vietnam or Sierra Leone. The Indochina clone is resistant to the antimalarials chloroquine, sulfadoxine, pyrimethamine, and quinine, whereas the Sierra Leone, is resistant to mefloquine but susceptible to chloroquine, quinine, sulfadoxine, and pyrimethamine. Test compounds were initially dissolved in DMSO and 70% ethanol and diluted in RPMI 1640 culture medium with 10% human plasma to 400 fold. Drugs were subsequently further diluted using the Cetus Pro/Pette (Perkin-Elmer Corp., Norwalk, CT) over a range of 1.56-100×10^-9 molar. Parasite inocula (at 0.5% parasitemia and a 1% hematocrit) were incubated for 24 hours and added to equimolar concentrations of each test compound prior to the addition of ^3 H-hypoxanthine. After a further incubation of 18 hours, particulate matter was harvested from each microtiter well using an automated cell harvester (Skatron, Inc., Sterling, VA). Uptake of ^3 H-hypoxanthine was measured using a scintillation spectrophotometer (Model LS3801, Beckman Instruments, Irvine, CA). Concentration-response data were analyzed by nonlinear regression and the IC50 's (50% inhibitory concentrations) for each compound were calculated.

[3] = test system: P. falciparum Indochina (W-2) clone; assay: In vitro antimalarial susceptibility, 3H-hypoxanthine uptake, Indochina (W-2) clone; format: cell-based, Plasmodium falciparum; conditions: Plasmodium falciparum
Experimental: as §1
as §2, with “CA).” for “CA). Concentration-response data were analyzed by nonlinear regression and the IC50 's (50% inhibitory concentrations) for each compound were calculated.”

[4] = physchem; format: physicochemical
Experimental: To compare the relative stability of the new agents vs. artesunic acid, stability studies of compound 8d and compound 1 were conducted in 2.5% K2 CO3 /D2 O solution at room temperature and were monitored by PMR. [drawing 8]
To a 5 mm NMR tube containing 10 mg of sample was added 0.5 mL of 2.5% K2 CO3 /D2 O solution. The initial spectrum of the solution was taken within 5 minutes, and again at intervals thereafter. The extent of hydrolysis was estimated by the following equation:
% Decomposition=(B/2A+B)×100
where A=integration of H-10 (5.80 ppm, d, J=10.8 Hz, 1H) and H-12 (5.71 ppm, s, 1H) of artesunate; B=integration of the singlet at 2.42 ppm for the potassium succinate formed. With time, the intensity of potassium succinate (2.42 ppm) signal increases, while that of H-10 and H-12 of artesunate decreases. The stability study of compound 1 in 5% NaHCO3 /D2 O was also carried out by the same procedure.

[5] = test system: P. falciparum Sierra Leone (D-6) clone; assay: In vitro antimalarial susceptibility, 3H-hypoxanthine uptake, Sierra Leone (D-6) clone; format: cell-based, Plasmodium falciparum
Experimental: as §1
as §2, with “CA).” for “CA). Concentration-response data were analyzed by nonlinear regression and the IC50 's (50% inhibitory concentrations) for each compound were calculated.”

[6] = Stability of the free acid (PMR spectrum on standing); format: physicochemical; conditions: gradual changes in PMR spectrum on standing
Source text: Hydrolysis of the ester (compound 5a) with 2.5% KOH/MeOH gave the corresponding potassium salt which was purified by reverse phase chromatography. Conversion of the salt (compound 7a) to the free acid (compound 8a) was achieved by acidification with acetic acid. The free acid appears to be unstable, as evidenced by gradual changes seen in its PMR spectrum on standing. This may be due to the instability of the acetal or ketal functions of the molecule under acidic conditions. In contrast, compounds 7b through 7d were smoothly converted to their corresponding stable free acids (compounds 8b-d).

SMILES | water solubility [1] | in vitro antimalarial activity relative to parent compounds [2] | IC50 [3] [ng/mL] | stability in solution [4] | In vitro antimalarial activity IC50, Sierra Leone (D-6) [5] [ng/mL] | stability of free acid [6]
CC1CCC2C(C)C(OCc3ccc(C(=O)O)cc3)OC3OC4(C)CCC1C32OO4 (stereo not drawn) [Compound 7d, Potassium p-(10-Dihydroartemisininoxy)methylbenzoate] | water soluble | comparable in vitro activity to artemisinin | 0.92 | stable in solution | 1.74 | 
CC1CCC2C(C)C(OCC(=O)O)OC3OC4(C)CCC1C32OO4 (stereo not drawn) [Compound 8a, 2-(10-Dihydroartemisininoxy)acetic acid] |  |  |  |  |  | unstable
